According to patent US20170368148A1, “USES OF A PTHrP ANALOGUE IN REDUCING FRACTURE RISK” (RADIUS HEALTH, INC., priority 2015, published 2017):
Read-outs that look alike come from different tables or passages of the source. Marks after values point to notes of the source that are not given here.

Key:
[1] = system: postmenopausal women with osteoporosis
[2] = system: postmenopausal women with osteoporosis; experiment: ACTIVExtend study: fractures at month 25 (abaloparatide or placebo 18 months, then alendronate 6 months); format: in vivo, human; conditions: abaloparatide 80 μg/day or placebo 18 months
[3] = system: postmenopausal women with osteoporosis; conditions: in vivo
Procedure: (§1) Safety evaluations performed in the ACTIVE trial included physical examinations, vital signs, 12-lead electrocardiograms, or ECGs, clinical laboratory tests and monitoring, and recording of adverse events. Specific safety assessments included pre-dose and post-dose (four hours) determination of serum calcium, determination of creatinine clearance, post-dose ECG assessments at selected visits, and assessments of postural hypotension (60 minutes post-dose) at selected clinic visits.
(§2) The ACTIVE trial also evaluated several potential safety measures, including blood calcium levels, orthostatic hypotension, nausea, dizziness, and injection-site reactions.

[4] = system: postmenopausal women with osteoporosis; experiment: ACTIVE trial: adverse events; conditions: 18 months; abaloparatide 80 μg (n = 822), teriparatide 20 μg (n = 818)
Procedure: as §1, §2

[5] = system: postmenopausal women with osteoporosis; conditions: in vivo; remark: listed apart in the source
Procedure: All subjects received supplemental calcium (500-1000 mg) and vitamin D (400-800 IU) per local practice. […] Blood calcium levels were assessed 4-hours and 24-hours after drug administration. Subjects were monitored for adverse events (AEs) and local tolerance at the injection site at each visit. Clinical and laboratory safety parameters, electrocardiograms, were also measured at each study visit.
Efficacy and safety were assessed using all randomized patients who received at least one dose of study drug. Baseline characteristics and safety parameters were summarized using descriptive statistics. […] All hypotheses were tested at the 2-sided 5% significance level.

[6] = during alendronate treatment, ACTIVExtend

## alendronate [PBO/ALN]
[1]; [6]
  AE: Abdominal pain, upper: 2.6%
  AE: Arthralgia: 4.7%
  AE: Back pain: 2.1%
  AE: Bone Pain: 1.2%
  AE: Diarrhea: 1.4%
  AE: Dyspepsia: 2.2%
  AE: Hypercalciuria: 1.6%
  AE: Hypertension: 2.1%
  AE: Nasopharyngitis: 1.4%
  AE: Pain in extremity: 2.4%
  AE: Upper respiratory tract infection: 4.5%
  AE: Urinary tract infection: 1.0%
[1]; human, in vivo
  AE: Influenza: 1.0%
[2]
  Fracture Rate, incident clinical fractures: 7.1%
  Fracture Rate, incident non-vertebral fractures: 5.5%
  Fracture Rate, major osteoporotic fractures: 4.6%
  Fracture Rate, new incident vertebral fractures: 4.4%

## CC[C@H](C)[C@H](NC(=O)[C@H](CO)NC(=O)[C@H](CCCCN)NC(=O)CNC(=O)[C@H](CCCCN)NC(=O)[C@H](CC(=O)O)NC(=O)[C@H](Cc1cnc[nH]1)NC(=O)[C@H](CC(C)C)NC(=O)[C@H](CC(C)C)NC(=O)[C@H](CCC(N)=O)NC(=O)[C@H](Cc1cnc[nH]1)NC(=O)[C@H](CCC(=O)O)NC(=O)[C@H](CO)NC(=O)[C@@H](NC(=O)[C@H](C)N)C(C)C)C(=O)N[C@@H](CCC(N)=O)C(=O)N[C@@H](CC(=O)O)C(=O)N[C@@H](CC(C)C)C(=O)N[C@@H](CCCNC(=N)N)C(=O)N[C@@H](CCCNC(=N)N)C(=O)N[C@@H](CCCNC(=N)N)C(=O)N[C@@H](CCC(=O)O)C(=O)N[C@@H](CC(C)C)C(=O)N[C@@H](CC(C)C)C(=O)N[C@@H](CCC(=O)O)C(=O)N[C@@H](CCCCN)C(=O)N[C@@H](CC(C)C)C(=O)N[C@@H](CC(C)C)C(=O)NC(C)(C)C(=O)N[C@@H](CCCCN)C(=O)N[C@@H](CC(C)C)C(=O)N[C@@H](Cc1cnc[nH]1)C(=O)N[C@H](C(=O)N[C@@H](C)C(N)=O)[C@@H](C)O [abaloparatide, [Glu^22,25, Leu^23,28,31, Aib^29, Lys^26,30]hPTHrP(1-34)NH2]
[3]
  AE: Hypercalcemia (serum albumin-corrected calcium value ≧10.7 mg/dL): 3.41%^†
[4]
  AE: Influenza: 6.3%
[5]
  Anti-abaloparatide antibody titer in positive patients: ≤ 1:20
  Patients with positive anti-abaloparatide antibody titer: 12%
